Consider five molecules from PMC9989471, “The Key Roles of Mycobacterium tuberculosis FadD23 C-terminal Domain in Catalytic Mechanisms” (Frontiers in Microbiology, 2023).

Data set [1] concerns the target T1, FadD23 (Mycobacterium tuberculosis, UniProt P9WQ47).
T1 construct: full-length
The data set is described as follows: crystal structure ([…] Å), formed from ATP and palmitic acid. The data set is classed as binding.

The target of data set [2] is T1, FadD23. As to the kind of experiment: crystal structure ([…] Å), with palmitic acid bound. The data set is classed as binding.
Data set [3] concerns the target T1, FadD23. The data set is described as follows: SPR. The data set is classed as binding.
The target of data set [4] is T1, FadD23. The data set is described as follows: SPR; also crystal structure with AMP-PNP, MS, DSF and hydroxamate-MesG assay. Type of data set: binding.
Another data set has as its system CCCCCCCCCCCC(=O)O. The data set is described as follows: purified protein. As to conditions: ATP, Mg2+.

T1 sequence (P9WQ47 whole entry): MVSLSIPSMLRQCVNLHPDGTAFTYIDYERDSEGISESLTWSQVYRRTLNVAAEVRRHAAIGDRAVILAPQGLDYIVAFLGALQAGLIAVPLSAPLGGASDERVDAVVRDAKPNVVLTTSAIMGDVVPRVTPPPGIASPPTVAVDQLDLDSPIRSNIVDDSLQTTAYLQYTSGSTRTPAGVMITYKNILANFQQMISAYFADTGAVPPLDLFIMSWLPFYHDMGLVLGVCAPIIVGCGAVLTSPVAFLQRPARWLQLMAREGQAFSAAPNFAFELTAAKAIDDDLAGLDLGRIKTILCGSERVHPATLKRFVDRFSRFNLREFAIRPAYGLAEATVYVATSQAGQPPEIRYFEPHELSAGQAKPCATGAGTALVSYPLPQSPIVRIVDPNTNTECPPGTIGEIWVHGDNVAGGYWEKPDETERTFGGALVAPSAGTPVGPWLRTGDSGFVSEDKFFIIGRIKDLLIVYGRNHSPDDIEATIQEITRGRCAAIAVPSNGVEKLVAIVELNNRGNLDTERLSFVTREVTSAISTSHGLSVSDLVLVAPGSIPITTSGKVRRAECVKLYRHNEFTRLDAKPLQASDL

Take `CCCCCCCCCCCCCCCC(=O)OP(=O)(O)OC[C@H]1O[C@@H](n2cnc3c(N)ncnc32)[C@H](O)[C@@H]1O` [AMP-C16, hexadecanoyl adenylate]: the “crystal structure (2.68 Å), formed from ATP and palmitic acid” value on FadD23 [1] was “FadD23 catalyzed the hydrolysis of ATP and connected AMP with palmitic acid to generate a molecule of AMP-C16”.
As for `Nc1ncnc2c1ncn2[C@@H]1O[C@H](CO[P@](=O)(O)O[P@](=O)(O)NP(=O)(O)O)[C@@H](O)[C@H]1O` [AMP-PNP], the “crystal structure (2.25 Å), with palmitic acid bound” value at FadD23 [2] is “In the AMP-PNP-FadD23 complex, the O27 of AMP-PNP interacted with NE of Arg460 through hydrogen bond”.
On FadD23 [3], `Nc1ncnc2c1ncn2[C@@H]1O[C@H](COP(=O)(O)OP(=O)(O)OP(=O)(O)O)[C@@H](O)[C@H]1O` [ATP] gave a Kd of about 1 µM.
`CCCCCCCCCCCCCCCC(=O)O` [palmitic acid]: the Kd on FadD23 [4] was found to be 34.5 µM.
Take “FadD23 (Mycobacterium tuberculosis H37Rv)”: in the data set on CCCCCCCCCCCC(=O)O, the Km came to 33.56 ± 5.40 µM, the Vmax came out at 0.00108 µmol/min, the kcat turned out to be 0.00239 s⁻¹ and the kcat/Km turned out to be 71.2 M⁻¹ s⁻¹.

What is called Kd is the free concentration of one partner at which half of the binding sites on the other are occupied at equilibrium, for simple one-to-one binding. In general, Km refers to the substrate concentration at which the rate is half of its maximum. The term Vmax denotes the rate approached at saturating substrate. Usually kcat stands for the number of substrate molecules converted per active site and unit of time at saturation. Broadly, the kcat/Km is the turnover number divided by the Michaelis constant.
